Source: US20230132823A1, “BI-FUNCTIONAL COMPOUNDS AND METHODS FOR TARGETED UBIQUITINATION OF ANDROGEN RECEPTOR” (MONTELINO THERAPEUTICS, INC., priority 2020, published 2023)

How the values were obtained:
AR-FL [1] = test: Immunoblot of AR-FL in harvested xenograft tumors; assay type: in vivo, human
Method: Immunoblot Analysis. CaP cells are collected and lysed with the lysis buffer (20 mM Tris-HCl (pH 7.5), 150 mM NaCl, 1 mM Na2EDTA, 1 mM EGTA, 1% Triton, 2.5 mM sodium pyrophosphate, 1 mM beta-glycerophosphate, 1 mM Na3VO4, and 1 μg/ml leupeptin) containing 1 mM phenylmethylsulfonyl fluoride (PMSF). Cell lysates are then centrifuged and protein in the supernatant is quantified. After separating 25-50 μg of protein using SDS-PAGE, samples are incubated with AR-V7, GR, PR, ERα, AR-FL, ubiquitin, or β-actin antibodies. For AR-V7, AR-FL, PR, GR, and ERα immunoblots, primary antibody is diluted 1:1000 in 5% skim milk. For the β-actin immunoblot, 1:10000 diluted primary antibody is used. […] Following the incubation with appropriate secondary antibody, immunoblots are analyzed using SuperSignal West Femto Maximum Sensitivity Substrate (ThermoFisher).
Mice are then treated daily with Test Compound with or without enzalutamide via the indicated route (intratumoral, intraperitoneal, or oral) for five to six weeks. At the end of the study, all animals are sacrificed and tumors are harvested and analyzed. Statistical significance is calculated using the Student's t-test for paired comparisons of experimental groups and, where appropriate, by Wilcoxon rank sum test, and by 2-way ANOVA. […]
The in vivo effects of the Compound of Example 16 are assessed in mice using enzalutamide-resistant CaP xenografts. […]

AR-FL [2] = biological target: T1, AR-FL (Homo sapiens, UniProt P10275, DUP590-628/H875Y); test: Immunoblot of AR-FL polyubiquitination in 22Rv1 pretreated with MG132; assay type: cell-based; set-up: decreased AR-V7 and AR-FL protein expression levels in 22Rv1 cells; endogenous in cells; host or cells: 22Rv1; conditions: 22Rv1 pretreated with MG132 two hours; compound 1 μM
T1 sequence (P10275 with tags, fused parts or gaps DUP590-628/H875Y): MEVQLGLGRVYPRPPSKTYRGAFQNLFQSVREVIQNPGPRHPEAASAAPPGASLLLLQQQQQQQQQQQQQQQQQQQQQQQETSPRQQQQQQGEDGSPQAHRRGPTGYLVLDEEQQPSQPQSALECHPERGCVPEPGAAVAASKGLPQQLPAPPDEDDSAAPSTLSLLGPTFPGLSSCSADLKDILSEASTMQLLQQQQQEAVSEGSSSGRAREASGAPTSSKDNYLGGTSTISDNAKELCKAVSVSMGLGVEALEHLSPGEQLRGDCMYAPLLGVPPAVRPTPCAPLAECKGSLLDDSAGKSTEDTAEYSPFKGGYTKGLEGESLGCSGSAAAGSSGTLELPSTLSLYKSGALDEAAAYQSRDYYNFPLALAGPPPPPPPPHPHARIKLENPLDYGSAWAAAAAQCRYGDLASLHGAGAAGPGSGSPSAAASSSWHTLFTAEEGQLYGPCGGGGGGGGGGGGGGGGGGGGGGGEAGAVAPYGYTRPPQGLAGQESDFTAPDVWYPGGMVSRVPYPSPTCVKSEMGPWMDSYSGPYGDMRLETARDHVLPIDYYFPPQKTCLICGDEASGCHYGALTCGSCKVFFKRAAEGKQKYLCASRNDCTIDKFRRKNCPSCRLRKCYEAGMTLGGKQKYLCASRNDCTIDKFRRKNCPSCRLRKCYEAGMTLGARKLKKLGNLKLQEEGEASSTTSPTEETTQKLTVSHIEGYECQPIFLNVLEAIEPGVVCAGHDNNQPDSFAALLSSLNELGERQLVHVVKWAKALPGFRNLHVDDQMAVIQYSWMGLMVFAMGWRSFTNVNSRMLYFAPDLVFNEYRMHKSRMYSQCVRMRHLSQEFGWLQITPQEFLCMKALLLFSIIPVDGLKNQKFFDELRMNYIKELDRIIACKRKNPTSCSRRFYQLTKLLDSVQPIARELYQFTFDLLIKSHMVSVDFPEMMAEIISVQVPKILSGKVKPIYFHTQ
Method: Immunoblot Analysis. CaP cells are collected and lysed with the lysis buffer (20 mM Tris-HCl (pH 7.5), 150 mM NaCl, 1 mM Na2EDTA, 1 mM EGTA, 1% Triton, 2.5 mM sodium pyrophosphate, 1 mM beta-glycerophosphate, 1 mM Na3VO4, and 1 μg/ml leupeptin) containing 1 mM phenylmethylsulfonyl fluoride (PMSF). Cell lysates are then centrifuged and protein in the supernatant is quantified. After separating 25-50 μg of protein using SDS-PAGE, samples are incubated with AR-V7, GR, PR, ERα, AR-FL, ubiquitin, or β-actin antibodies. For AR-V7, AR-FL, PR, GR, and ERα immunoblots, primary antibody is diluted 1:1000 in 5% skim milk. For the β-actin immunoblot, 1:10000 diluted primary antibody is used. All membranes are incubated overnight at 4° C. Following the incubation with appropriate secondary antibody, immunoblots are analyzed using SuperSignal West Femto Maximum Sensitivity Substrate (ThermoFisher).
To determine the ubiquitination status of AR proteins, 22Rv1 is pretreated with MG132 for two hours prior to adding Compound of Example 16 (at 1 μM).

SMILES: Cc1ncsc1-c1ccc([C@H](C)NC(=O)[C@@H]2C[C@@H](O)CN2C(=O)[C@@H](NC(=O)CCCCNC(=O)COc2c(-c3csc(N4CCOCC4)n3)ccc(F)c2F)C(C)(C)C)cc1 [Example 16, (2S,4R)-1-((S)-2-(5-(2-(2,3-difluoro-6-(2-morpholinothiazol-4-yl)phenoxy)acetamido)pentanamido)-3,3-dimethylbutanoyl)-4-hydroxy-N-((S)-1-(4-(4-methylthiazol-5-yl)phenyl)ethyl)pyrrolidine-2-carboxamide]
- AR-FL protein expression in Enz^R CaP tumors (AR-FL [1]; IP administration): decreased
- AR-FL protein level in treated tumors (AR-FL [1]; intratumoral, 22Rv1-Enz^R xenograft, end of study): significant decrease
- time of detection of AR-FL polyubiquitination after treatment (AR-FL [2]): 24 h
